Source: US10150764B2, “Substituted benzene compounds” (Epizyme, Inc., priority 2013, dated 2018)

Columns and labels:
[1] = biological target: wild-type EZH2 (PRC2 enzyme) (Homo sapiens (Human), UniProt Q15910); assay: PRC2 enzyme assay on peptide substrate, wild-type EZH2 (H3K27me0 peptide, 3H-SAM Flashplate); type: biochemical; conditions: wild-type PRC2 4 nM, read-out: WT EZH2 IC50
Description: (§1) Human PRC2 enzymes were purified as 4-component enzyme complexes co-expressed in Spodoptera frugiperda (sf9) cells using a baculovirus expression system. […] The EED subunit contained an N-terminal FLAG tag that was used to purify the entire 4-component complex from sf9 cell lysates.
(§2) The assays were all performed in a buffer consisting of 20 mM bicine (pH=7.6), 0.5 mM DTT, 0.005% BSG and 0.002% Tween20, prepared on the day of use. […] DMSO (1 μL) was added to columns 11, 12, 23, 24, rows A-H for the maximum signal control, and SAH, a known product and inhibitor of PRC2 (1 μL) was added to columns 11, 12, 23, 24, rows I-P for the minimum signal control. A cocktail (40 μL) containing the wild-type PRC2 enzyme and H3K27me0 peptide or any of the Y641 mutant enzymes and H3K27me2 peptide was added by Multidrop Combi (Thermo). The compounds were allowed to incubate with PRC2 for 30 min at 25° C., then a cocktail (10 μL) containing a mixture of non-radioactive and ^3H-SAM was added to initiate the reaction (final volume=51 μL). […] The assays were stopped by the addition of non-radioactive SAM (10 μL) to a final concentration of 600 μM, which dilutes the ^3H-SAM to a level where its incorporation into the peptide substrate is no longer detectable. 50 of the reaction in the 384-well polypropylene plate was then transferred to a 384-well Flashplate and the biotinylated peptides were allowed to bind to the streptavidin surface for at least 1 h before being washed three times with 0.1% Tween20 in a Biotek ELx405 plate washer. The plates were then read in a PerkinElmer TopCount platereader to measure the quantity of ^3H-labeled peptide bound to the Flashplate surface, measured as disintegrations per minute (dpm) or alternatively, referred to as counts per minute (cpm).

[2] = biological target: EZH2 Y641F mutant (PRC2 enzyme) (Homo sapiens (Human), UniProt Q15910, Y641F); assay: PRC2 enzyme assay on peptide substrate, EZH2 Y641F mutant (H3K27me2 peptide, 3H-SAM Flashplate); type: biochemical; conditions: Y641F mutant PRC2 4 nM
Chain of EZH2 Y641F mutant (PRC2 enzyme) (Q15910 whole entry Y641F): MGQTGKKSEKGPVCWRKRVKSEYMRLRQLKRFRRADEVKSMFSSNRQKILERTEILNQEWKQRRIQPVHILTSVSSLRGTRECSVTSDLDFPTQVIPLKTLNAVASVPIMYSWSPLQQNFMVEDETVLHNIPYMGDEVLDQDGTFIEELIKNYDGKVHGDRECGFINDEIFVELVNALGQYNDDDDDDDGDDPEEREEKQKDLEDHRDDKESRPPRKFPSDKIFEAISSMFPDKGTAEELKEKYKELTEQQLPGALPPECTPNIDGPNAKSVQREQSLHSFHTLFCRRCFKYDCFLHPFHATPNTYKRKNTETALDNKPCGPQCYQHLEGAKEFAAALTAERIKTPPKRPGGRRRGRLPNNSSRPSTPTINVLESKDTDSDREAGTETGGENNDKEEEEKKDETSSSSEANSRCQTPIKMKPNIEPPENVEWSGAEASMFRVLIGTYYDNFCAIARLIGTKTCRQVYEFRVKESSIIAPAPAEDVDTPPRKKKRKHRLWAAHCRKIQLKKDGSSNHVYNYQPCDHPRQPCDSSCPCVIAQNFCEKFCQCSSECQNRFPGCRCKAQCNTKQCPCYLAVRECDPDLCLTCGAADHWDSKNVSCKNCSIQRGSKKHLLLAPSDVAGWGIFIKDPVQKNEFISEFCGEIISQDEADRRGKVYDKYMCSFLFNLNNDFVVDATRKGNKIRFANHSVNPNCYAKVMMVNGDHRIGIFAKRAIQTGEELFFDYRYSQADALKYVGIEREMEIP
Chain of EZH2 Y641F mutant (PRC2 enzyme) (O75530 whole entry partner): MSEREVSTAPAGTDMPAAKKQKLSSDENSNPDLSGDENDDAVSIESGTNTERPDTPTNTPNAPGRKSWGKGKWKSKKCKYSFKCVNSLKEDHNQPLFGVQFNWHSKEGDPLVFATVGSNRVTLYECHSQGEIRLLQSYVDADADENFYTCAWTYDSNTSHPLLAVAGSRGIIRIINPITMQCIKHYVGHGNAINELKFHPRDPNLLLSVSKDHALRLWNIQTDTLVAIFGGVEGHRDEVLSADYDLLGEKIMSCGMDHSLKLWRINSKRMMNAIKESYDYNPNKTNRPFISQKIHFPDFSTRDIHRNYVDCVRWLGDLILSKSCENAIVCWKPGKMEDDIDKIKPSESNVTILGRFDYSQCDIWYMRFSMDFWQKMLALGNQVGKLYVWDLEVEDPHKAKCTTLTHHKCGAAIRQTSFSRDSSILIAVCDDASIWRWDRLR
Chain of EZH2 Y641F mutant (PRC2 enzyme) (Q15022 whole entry partner): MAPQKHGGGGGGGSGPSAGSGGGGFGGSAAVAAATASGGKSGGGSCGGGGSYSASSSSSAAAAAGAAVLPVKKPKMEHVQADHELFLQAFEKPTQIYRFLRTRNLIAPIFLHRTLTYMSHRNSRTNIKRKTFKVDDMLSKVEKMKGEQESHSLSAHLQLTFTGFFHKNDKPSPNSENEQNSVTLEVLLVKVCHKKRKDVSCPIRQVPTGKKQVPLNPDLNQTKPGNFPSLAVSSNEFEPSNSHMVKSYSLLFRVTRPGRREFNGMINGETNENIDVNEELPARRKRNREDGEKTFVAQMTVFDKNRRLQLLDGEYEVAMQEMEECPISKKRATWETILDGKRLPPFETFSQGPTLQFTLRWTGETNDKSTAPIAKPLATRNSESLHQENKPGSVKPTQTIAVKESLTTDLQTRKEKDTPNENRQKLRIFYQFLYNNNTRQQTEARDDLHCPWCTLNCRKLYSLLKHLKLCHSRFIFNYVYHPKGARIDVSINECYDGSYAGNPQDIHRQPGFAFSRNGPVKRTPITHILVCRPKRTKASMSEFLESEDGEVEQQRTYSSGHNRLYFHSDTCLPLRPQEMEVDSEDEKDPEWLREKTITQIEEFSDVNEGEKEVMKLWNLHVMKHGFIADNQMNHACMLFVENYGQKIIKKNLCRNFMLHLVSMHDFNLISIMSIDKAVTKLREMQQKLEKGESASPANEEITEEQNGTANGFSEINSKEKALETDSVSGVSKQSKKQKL
Chain of EZH2 Y641F mutant (PRC2 enzyme) (Q09028 whole entry partner): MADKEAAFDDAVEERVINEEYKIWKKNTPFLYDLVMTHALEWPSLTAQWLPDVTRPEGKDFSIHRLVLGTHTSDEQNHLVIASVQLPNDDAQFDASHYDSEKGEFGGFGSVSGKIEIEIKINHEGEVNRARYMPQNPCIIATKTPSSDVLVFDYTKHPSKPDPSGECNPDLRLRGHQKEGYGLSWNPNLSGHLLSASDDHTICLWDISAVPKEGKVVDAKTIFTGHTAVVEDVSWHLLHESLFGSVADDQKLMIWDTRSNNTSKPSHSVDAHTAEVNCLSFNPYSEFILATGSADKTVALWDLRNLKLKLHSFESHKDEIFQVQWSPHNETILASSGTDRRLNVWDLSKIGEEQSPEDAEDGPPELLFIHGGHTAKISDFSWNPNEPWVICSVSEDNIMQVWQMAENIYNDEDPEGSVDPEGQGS
Description: as §1, §2

Chain of wild-type EZH2 (PRC2 enzyme) (Q15910 whole entry): as the sequence (Q15910 whole entry Y641F) above, with F641Y counted along it
Chain of wild-type EZH2 (PRC2 enzyme) (O75530 whole entry partner): as the sequence (O75530 whole entry partner) above
Chain of wild-type EZH2 (PRC2 enzyme) (Q15022 whole entry partner): as the sequence (Q15022 whole entry partner) above
Chain of wild-type EZH2 (PRC2 enzyme) (Q09028 whole entry partner): as the sequence (Q09028 whole entry partner) above

Row | Compound | IC50 [1] | IC50 [2]
1 | CCN(c1cc(Cl)cc(C(=O)NCc2c(C)[nH]n(C(C)C)c2=O)c1C)[C@H]1CC[C@H](N(C)C)CC1 [Compound 37, 5-chloro-3-(((trans)-4-(dimethylamino)cyclohexyl)(ethyl)amino)-N-((2-isopropyl-5-methyl-3-oxo-2,3-dihydro-1H-pyrazol-4-yl)methyl)-2-methylbenzamide] | 15.6 µM | 2.67 µM
2 | CCN(c1cc(Cl)cc(C(=O)NCc2c(OC)nn(C)c2C)c1C)[C@H]1CC[C@H](N(C)Cc2cccc(OCCOC)c2)CC1 [Compound 68, 5-chloro-3-(ethyl((trans)-4-((3-(2-methoxyethoxy)benzyl)(methyl)amino)cyclohexyl)amino)-N-((3-methoxy-1,5-dimethyl-1H-pyrazol-4-yl)methyl)-2-methylbenzamide] | 2.59 µM | 
3 | CCN(c1cc(Cl)cc(C(=O)NCc2c(OC)nn(C)c2N2CCCC2)c1C)[C@H]1CC[C@H](N(C)C)CC1 [Compound 80, 5-chloro-3-(((trans)-4-(dimethylamino)cyclohexyl) (ethyl)amino)-N-((3-methoxy-1-methyl-5-(pyrrolidin-1-yl)-1H-pyrazol-4-yl)methyl)-2-methylbenzamide] | > 50 µM | 49.4 µM
4 | CCN(c1cc(Cl)cc(C(=O)NCc2c(OC)nn(C)c2C)c1C)[C@H]1CC[C@H](N(C)Cc2cccnc2)CC1 [Compound 66, 5-chloro-3-(ethyl((trans)-4-(methyl(pyridin-3-ylmethyl)amino)cyclohexyl)amino)-N-((3-methoxy-1,5-dimethyl-1H-pyrazol-4-yl)methyl)-2-methylbenzamide] | 10.2 µM | 2.34 µM
5 | CCN(c1cc(Cl)cc(C(=O)NCc2c(C)n(C)[nH]c2=O)c1C)C1CCN(CCc2cccc(OC)c2)CC1 [Compound 79, 5-chloro-N-((1,5-dimethyl-3-oxo-2,3-dihydro-1H-pyrazol-4-yl)methyl)-3-(ethyl(1-(3-methoxyphenethyl)piperidin-4-yl)amino)-2-methylbenzamide] | 0.485 µM | 0.1 µM
6 | CCN(c1cc(Cl)cc(C(=O)NCc2c(C)nc3cc[nH]n3c2=O)c1C)[C@H]1CC[C@H](N(C)C)CC1 [Compound 8, 5-chloro-3-(((trans)-4-(dimethylamino)cyclohexyl)(ethyl)amino)-2-methyl-N-((5-methyl-7-oxo-1,7-dihydropyrazolo[1,5-a]pyrimidin-6-yl)methyl)benzamide] | 20 µM | 5.82 µM
7 | CCN(c1cc(Cl)cc(C(=O)NCc2c(C)n(C)n(C)c2=O)c1C)[C@H]1CC[C@H](N(C)C)CC1 [Compound 87, 5-chloro-3-(ethyl((trans)-4-(dimethylamino)cyclohexyl)amino)-2-methyl-N-((1,2,5-trimethyl-3-oxo-2,3-dihydro-1H-pyrazol-4-yl)methyl)benzamide] | 0.335 µM | 0.253 µM
8 | CCn1nc(OC)c(CNC(=O)c2cc(Cl)cc(N(CC)[C@H]3CC[C@H](N(C)CCOC)CC3)c2C)c1C [Compound 64, 5-chloro-3-(ethyl ((trans)-4-((2-methoxyethyl)-(methyl)-amino)-cyclohexyl)amino)-N-((1-ethyl-3-methoxy-5-methyl-1H-pyrazol-4-yl)methyl)-2-methylbenzamide] | 17.5 µM | 4.48 µM
9 | CCN(c1cc(Cl)cc(C(=O)NCc2c(N3CCCCC3)nn(C)c2OC)c1C)[C@H]1CC[C@H](N(C)C)CC1 [Compound 94, 5-chloro-3-(((trans)-4-(dimethylamino)cyclohexyl)(ethyl)amino)-N-((5-methoxy-1-methyl-3-(piperidin-1-yl)-1H-pyrazol-4-yl)methyl)-2-methylbenzamide] | > 50 µM | > 50 µM
10 | CCN(c1cc(Cl)cc(C(=O)NCc2c(C(F)(F)F)nn(C)c2OC)c1C)[C@H]1CC[C@H](N(C)C)CC1 [Compound 88, 5-chloro-3-(ethyl((trans)-4-(dimethylamino)cyclohexyl)amino)-N-((5-methoxy-1-methyl-3-(trifluoromethyl)-1H-pyrazol-4-yl)methyl)-2-methylbenzamide] | > 50 µM | 46.4 µM
11 | CCN(c1cc(Cl)cc(C(=O)NCc2c(OC)nn3c(C)cc(C)nc23)c1C)[C@H]1CC[C@H](N(C)C)CC1 [Compound 48, 5-chloro-3-(((trans)-4-(dimethylamino)cyclohexyl)(ethyl)amino)-N-((2-methoxy-5,7-dimethylpyrazolo[1,5-a]pyrimidin-3-yl)methyl)-2-methylbenzamide] | > 50 µM | > 50 µM
12 | CCN(c1cc(Cl)cc(C(=O)NCc2c(C)n(C)[nH]c2=O)c1C)[C@H]1CC[C@H](N(C)Cc2cccnc2)CC1 [Compound 67, 5-chloro-N-((1,5-dimethyl-3-oxo-2,3-dihydro-1H-pyrazol-4-yl)methyl)-3-(ethyl((trans)-4-(methyl(pyridin-3-ylmethyl)amino)cyclohexyl)amino)-2-methylbenzamide] | 0.319 µM | 0.06 µM
13 | CCN(c1cc(Cl)cc(C(=O)NCc2c(OC)nn(CC)c2C)c1C)C1CCN(CCOC)CC1 [Compound 74] | 12.6 µM | 7.25 µM
14 | CCN(c1cc(Cl)cc(C(=O)NCc2c(OC)nn(C)c2C)c1C)C1CCN(CCOC)CC1 [Compound 76, 5-chloro-3-(ethyl(1-(2-methoxyethyl)piperidin-4-yl)amino)-N-((3-methoxy-1,5-dimethyl-1H-pyrazol-4-yl)methyl)-2-methylbenzamide] | > 50 µM | > 50 µM
15 | CCN(c1cc(Cl)cc(C(=O)NCc2c(C)[nH]n(C)c2=O)c1C)[C@@H]1COC[C@H]1OCCOC (relative stereo) [Compound 45, 5-chloro-N-((2,5-dimethyl-3-oxo-2,3-dihydro-1H-pyrazol-4-yl)methyl)-3-(ethyl((trans)-4-(2-methoxyethoxy)tetrahydrofuran-3-yl)amino)-2-methylbenzamide] | > 50 µM | > 50 µM
16 | CCO[C@@H]1COC[C@H]1N(CC)c1cc(Cl)cc(C(=O)NCc2c(C)[nH]n(C)c2=O)c1C (relative stereo) [Compound 43, 5-chloro-N-((2,5-dimethyl-3-oxo-2,3-dihydro-1H-pyrazol-4-yl)methyl)-3-(((trans)-4-ethoxytetrahydrofuran-3-yl)(ethyl)amino)-2-methylbenzamide] | > 50 µM | > 50 µM
17 | CCN(c1cc(Cl)cc(C(=O)NCc2c(OC)nn(C)c2C)c1C)C1CCN(CCc2cccc(OC)c2)CC1 [Compound 78, 5-chloro-3-(ethyl(1-(3-methoxyphenethyl)piperidin-4-yl)amino)-N-((3-methoxy-1,5-dimethyl-1H-pyrazol-4-yl)methyl)-2-methylbenzamide] | 17.6 µM | 4.26 µM
18 | CCN(c1cc(Cl)cc(C(=O)NCc2c(OC)nn(C)c2N2CCOCC2)c1C)[C@H]1CC[C@H](N(C)C)CC1 [Compound 82, 5-chloro-3-(((trans)-4-(dimethylamino)cyclohexyl) (ethyl)amino)-N-((3-methoxy-1-methyl-5-morpholino-1H-pyrazol-4-yl)methyl)-2-methylbenzamide] | 22.9 µM | 27 µM
19 | CCN(c1cc(Cl)cc(C(=O)NCc2c(C)nn(C)c2OC)c1C)[C@@H]1COC[C@H]1OCCOC (relative stereo) [Compound 44, 5-chloro-3-(ethyl((trans)-4-(2-methoxyethoxy)tetrahydrofuran-3-yl)amino)-N-((5-methoxy-1,3-dimethyl-1H-pyrazol-4-yl)methyl)-2-methylbenzamide] | > 50 µM | 
